Reference: publication PMC9774241, “Associating Biological Activity and Predicted Structure of Antimicrobial Peptides from Amphibians and Insects” (Antibiotics, 2022)
Converted amounts (≈) assume the structure as drawn. Read-outs that look alike come from different tables or passages of the source. Residues, ends and D or L forms follow the SMILES beside them. No end group written: not given here.

Experiments:
Type in all cases: cell-based
[1] = test system: Salmonella enterica serovar Enteritidis (human clinical isolate)
Description: (§1) Bacteria were grown overnight at 37 °C in Mueller-Hinton Broth (MHB; Sigma-Aldrich, St. Louis. MO, USA) in a shaking incubator and aliquoted into cryovials with a 50% glycerol solution in a 1:1 ratio. No additives were added to the MHB during the growth of bacterial isolates. Glycerol stocks were stored at −80 °C.
(§2) The antimicrobial activity of the putative AMPs was determined by a broth microdilution assay as described by the Clinical and Laboratory Standards Institute, with the published adaptations for testing of cationic peptides. Escherichia coli 25922 and Staphylococcus aureus 29213 isolates were purchased from the American Type Culture Collection (ATCC; Manassas, VA, USA). A human clinical isolate of Salmonella enterica serovar Enteritidis was provided by the BC Centre for Disease Control. Bacteria from stocks stored at −80 °C were streaked onto nonselective Columbia blood agar with 5% sheep blood (Oxoid) and incubated overnight at 37 °C. Next, 2–4 colonies were streaked onto a new agar plate to ensure uniform health of colonies used in the broth microdilution assay. Isolated colonies were suspended in MHB and the optical density was measured with a spectrophotometer to create an initial inoculum concentration of approximately 1 × 10^8 cfu/mL. The inoculum was diluted 1:250 to a final concentration of 2–8 × 10^5 cfu/mL, which was confirmed by performing a Total Viability Count (TVC). The TVC consisted of plating a 1:1000 dilution of the final inoculum on nonselective media and was also used to confirm the health and purity of the inoculum in each trial.
(§3) Lyophilized 80 µg peptide aliquots synthesized by GenScript (Piscataway, NJ, USA) were resuspended to 1.28 mg/mL with UltraPure water (Thermo Fisher Scientific, Waltham, MA, USA) and serially diluted in polypropylene 96-well microtiter plates (Greiner Bio-One #650261, Kremsmünster, Austria) from 128 down to 0.5 µg/mL. Two columns per plate were reserved for growth and sterility controls. Inoculum was added to the wells containing the peptide and the growth control. Plates were incubated for 20–24 h at 37 °C. The minimum inhibitory concentration (MIC) was determined as the lowest peptide concentration where there was no visible bacterial growth.

[2] = test system: Escherichia coli ATCC 25922
Description: as §1, §2, §3

[3] = test system: Staphylococcus aureus ATCC 29213
Description: as §1, §2, §3

[4] = broth microdilution in MHB, peptide 128 down to 0.5 µg/mL, 20–24 h at 37 °C, no visible growth, range of three independent experiments

Compound: GLLGKVLGVGKKVLC [PeNi4, rAMPage-discovered AMP, Pelophylax nigromaculatus]
- MIC, Salmonella Enteritidis [1, 4]: 4 to 8 µg/mL
- MIC, E. coli ATCC 25922 [2, 4]: 8 to 16 µg/mL
- MIC, S. aureus ATCC 29213 [3, 4]: 4 to 8 µg/mL

Compound: GWGLINIKIPPVLHKVSVPLVSKR [ApMe3]
- MIC, Salmonella Enteritidis [1, 4]: > 128 µg/mL
- MIC, E. coli ATCC 25922 [2, 4]: > 128 µg/mL
- MIC, S. aureus ATCC 29213 [3, 4]: > 128 µg/mL

Compound: KYHHIKLRHGRHRRTIH [PaVa2]
- MIC, Salmonella Enteritidis [1, 4]: > 128 µg/mL
- MIC, E. coli ATCC 25922 [2, 4]: > 128 µg/mL
- MIC, S. aureus ATCC 29213 [3, 4]: > 128 µg/mL

Compound: GILSGLLGAGKKIVCGLSGMC [RaOm2, rAMPage-discovered AMP, Rana omeimontis]
- MIC, Salmonella Enteritidis [1, 4]: > 128 µg/mL
- MIC, E. coli ATCC 25922 [2, 4]: 64 to 128 µg/mL
- MIC, S. aureus ATCC 29213 [3, 4]: > 128 µg/mL

Compound: GSSSRSCRCIRLSRLSSKRT [NaVi4]
- MIC, Salmonella Enteritidis [1, 4]: > 128 µg/mL
- MIC, E. coli ATCC 25922 [2, 4]: > 128 µg/mL
- MIC, S. aureus ATCC 29213 [3, 4]: > 128 µg/mL

Compound: CC[C@H](C)[C@H](NC(=O)CNC(=O)[C@H](CO)NC(=O)[C@H](CC(C)C)NC(=O)[C@H](CC(C)C)NC(=O)CN)C(=O)N[C@@H](CC(C)C)C(=O)NCC(=O)N[C@@H](C)C(=O)NCC(=O)N[C@@H](CCCCN)C(=O)N[C@@H](CCCCN)C(=O)N[C@H](C(=O)N[C@H](C(=O)N[C@@H](CS)C(=O)NCC(=O)N[C@@H](Cc1ccccc1)C(=O)N[C@@H](CO)C(=O)NCC(=O)N[C@@H](CC(C)C)C(=O)N[C@@H](CS)C(=O)O)C(C)C)[C@@H](C)CC [OdMa1] (H-GLLSGILGAGKKIVCGFSGLC-OH; N-terminus and C-terminus assumed)
- MIC, Salmonella Enteritidis [1, 4]: 128 µg/mL (≈ 64.2 µM)
- MIC, E. coli ATCC 25922 [2, 4]: 8 to 16 µg/mL
- MIC, S. aureus ATCC 29213 [3, 4]: 64 µg/mL (≈ 32.1 µM)

Compound: CC[C@H](C)[C@H](NC(=O)CNC(=O)[C@H](C)NC(=O)[C@@H](NC(=O)[C@H](CC(N)=O)NC(=O)[C@H](CCCCN)NC(=O)[C@H](C)NC(=O)[C@H](C)NC(=O)CNC(=O)[C@H](CCCCN)NC(=O)[C@@H](NC(=O)[C@@H](NC(=O)[C@H](CC(=O)O)NC(=O)[C@H](CC(C)C)NC(=O)[C@H](CC(C)C)NC(=O)[C@H](CC(C)C)NC(=O)CN)[C@@H](C)O)C(C)C)C(C)C)C(=O)N[C@@H](CC(C)C)C(=O)N[C@@H](CC(C)C)C(=O)N[C@@H](CC(N)=O)C(=O)N[C@@H](CCCCN)C(=O)N[C@@H](CC(C)C)C(=O)N[C@@H](CCCCN)C(=O)N[C@@H](CS)C(=O)N[C@@H](CCCCN)C(=O)N[C@H](C(=O)N[C@H](C(=O)NCC(=O)N[C@@H](CC(=O)O)C(=O)N[C@@H](CS)C(=O)O)[C@@H](C)O)C(C)C [PeNi10] (H-GLLLDTVKGAAKNVAGILLNKLKCKVTGDC-OH; N-terminus and C-terminus assumed)
- MIC, Salmonella Enteritidis [1, 4]: 64 to 128 µg/mL
- MIC, E. coli ATCC 25922 [2, 4]: 8 µg/mL (≈ 2.62 µM)
- MIC, S. aureus ATCC 29213 [3, 4]: 16 to 32 µg/mL

Compound: DNKWQNVHFHRSAVTGPTSFSFSHK [AnFl1]
- MIC, Salmonella Enteritidis ([1]; serovar Enteritidis (human clinical isolate)): > 128 µg/mL
- MIC, E. coli ATCC 25922 ([2]; ATCC 25922): > 128 µg/mL
- MIC, S. aureus ATCC 29213 ([3]; ATCC 29213): > 128 µg/mL

Compound: VPFGLKPR [TeRu1]
- MIC, Salmonella Enteritidis [1, 4]: > 128 µg/mL
- MIC, E. coli ATCC 25922 [2, 4]: > 128 µg/mL
- MIC, S. aureus ATCC 29213 [3, 4]: > 128 µg/mL

Compound: KLFLTLWKLKR [NaVi3]
- MIC, Salmonella Enteritidis [1, 4]: 64 µg/mL
- MIC, E. coli ATCC 25922 [2, 4]: 8 to 16 µg/mL
- MIC, S. aureus ATCC 29213 [3, 4]: 128 µg/mL

Compound: CC[C@H](C)[C@H](NC(=O)[C@H](CO)NC(=O)[C@@H]1CCCN1C(=O)[C@H](CC(C)C)NC(=O)[C@@H](NC(=O)[C@H](CCCCN)NC(=O)[C@H](C)NC(=O)[C@H](C)NC(=O)[C@H](CC(C)C)NC(=O)CNC(=O)[C@H](C)NC(=O)[C@@H](NC(=O)[C@@H](NC(=O)[C@@H]1CCCN1C(=O)[C@H](CC(C)C)NC(=O)[C@H](Cc1ccccc1)NC(=O)[C@H](CCCNC(=N)N)NC(=O)[C@H](CCC(N)=O)NC(=O)[C@H](CCC(=O)O)NC(=O)[C@@H](N)CCC(=O)O)C(C)C)C(C)C)C(C)C)C(=O)N[C@H](C(=O)N[C@@H](CS)C(=O)N[C@@H](C)C(=O)N[C@H](C(=O)N[C@H](C(=O)N[C@@H](CCCCN)C(=O)N[C@@H](CCCCN)C(=O)N[C@@H](CS)C(=O)O)[C@@H](C)O)C(C)C)[C@@H](C)CC [RaSy2] (H-EEQRFLPVVAGLAAKVLPSIICAVTKKC-OH; N-terminus and C-terminus assumed)
- MIC, Salmonella Enteritidis [1, 4]: > 128 µg/mL
- MIC, E. coli ATCC 25922 [2, 4]: 64 µg/mL (≈ 21.4 µM)
- MIC, S. aureus ATCC 29213 [3, 4]: 64 to 128 µg/mL

Compound: ITEPVGTKAPTFTSELRGGWLKKR [PaVa3]
- MIC, Salmonella Enteritidis [1, 4]: > 128 µg/mL
- MIC, E. coli ATCC 25922 [2, 4]: > 128 µg/mL
- MIC, S. aureus ATCC 29213 [3, 4]: > 128 µg/mL

Compound: CC[C@H](C)[C@H](NC(=O)CN)C(=O)N[C@@H](CC(C)C)C(=O)N[C@H](C(=O)N[C@@H](CC(=O)O)C(=O)N[C@H](C(=O)N[C@@H](CC(C)C)C(=O)N[C@@H](CCCCN)C(=O)NCC(=O)N[C@@H](C)C(=O)N[C@@H](C)C(=O)N[C@@H](CCCCN)C(=O)N[C@@H](CC(N)=O)C(=O)N[C@H](C(=O)N[C@@H](C)C(=O)NCC(=O)N[C@H](C(=O)N[C@@H](CC(C)C)C(=O)N[C@@H](CC(C)C)C(=O)N[C@@H](CC(=O)O)C(=O)N[C@@H](CCCCN)C(=O)N[C@@H](CC(C)C)C(=O)N[C@@H](CCCCN)C(=O)N[C@@H](CS)C(=O)N[C@@H](CCCCN)C(=O)N[C@H](C(=O)N[C@H](C(=O)NCC(=O)NCC(=O)N[C@@H](CS)C(=O)O)[C@@H](C)O)[C@@H](C)CC)C(C)C)C(C)C)[C@@H](C)O)[C@@H](C)O [PeNi11] (H-GILTDTLKGAAKNVAGVLLDKLKCKITGGC-OH; N-terminus and C-terminus assumed)
- MIC, Salmonella Enteritidis [1, 4]: 128 µg/mL (≈ 42.6 µM)
- MIC, E. coli ATCC 25922 [2, 4]: 8 to 16 µg/mL
- MIC, S. aureus ATCC 29213 [3, 4]: 64 µg/mL (≈ 21.3 µM)

Compound: AVLSFVHKLFLNFLHVDTSKGKCRATLQ [TeRu3]
- MIC, Salmonella Enteritidis [1, 4]: > 128 µg/mL
- MIC, E. coli ATCC 25922 [2, 4]: > 128 µg/mL
- MIC, S. aureus ATCC 29213 [3, 4]: > 128 µg/mL

Compound: VAAFAIIGCLCCRRPRR [PoRo1]
- MIC, Salmonella Enteritidis [1, 4]: > 128 µg/mL
- MIC, E. coli ATCC 25922 [2, 4]: > 128 µg/mL
- MIC, S. aureus ATCC 29213 [3, 4]: > 128 µg/mL

Compound: GAFVLWGPTPRPRRR [DiLo1]
- MIC, Salmonella Enteritidis [1, 4]: > 128 µg/mL
- MIC, E. coli ATCC 25922 [2, 4]: 128 µg/mL
- MIC, S. aureus ATCC 29213 [3, 4]: > 128 µg/mL

Compound: GFMDTAKNVAKNVAVTLLDNLKCKITKAC [OdMa13, rAMPage-discovered AMP, Odorrana margaretae]
- MIC, Salmonella Enteritidis [1, 4]: > 128 µg/mL
- MIC, E. coli ATCC 25922 [2, 4]: 64 to 128 µg/mL
- MIC, S. aureus ATCC 29213 [3, 4]: > 128 µg/mL

Compound: CC[C@H](C)[C@H](NC(=O)CNC(=O)[C@H](CO)NC(=O)[C@@H](NC(=O)[C@H](CC(C)C)NC(=O)CN)[C@@H](C)CC)C(=O)N[C@@H](CC(C)C)C(=O)NCC(=O)N[C@@H](C)C(=O)NCC(=O)N[C@@H](CCCCN)C(=O)N[C@@H](CCCCN)C(=O)N[C@H](C(=O)N[C@@H](CC(C)C)C(=O)N[C@@H](CS)C(=O)NCC(=O)N[C@@H](CC(C)C)C(=O)N[C@@H](CO)C(=O)NCC(=O)N[C@@H](CC(C)C)C(=O)N[C@@H](CS)C(=O)O)C(C)C [OdMa10] (H-GLISGILGAGKKVLCGLSGLC-OH; N-terminus and C-terminus assumed)
- MIC, Salmonella Enteritidis [1, 4]: > 128 µg/mL
- MIC, E. coli ATCC 25922 [2, 4]: 16 to 32 µg/mL
- MIC, S. aureus ATCC 29213 [3, 4]: 64 to 128 µg/mL

Compound: ISIKEALEHSFFHTVPRKWCKKH [PoSn1]
- MIC, Salmonella Enteritidis [1, 4]: > 128 µg/mL
- MIC, E. coli ATCC 25922 [2, 4]: 64 µg/mL
- MIC, S. aureus ATCC 29213 [3, 4]: > 128 µg/mL

Compound: KEERGAPKGCWTKSYPPKPCSGKR [PeNi13]
- MIC, Salmonella Enteritidis [1, 4]: > 128 µg/mL
- MIC, E. coli ATCC 25922 [2, 4]: > 128 µg/mL
- MIC, S. aureus ATCC 29213 [3, 4]: > 128 µg/mL

Compound: AFVRILCYCCPRRIKRR [TeRu2, rAMPage-discovered AMP, Temnothorax rugatulus]
- MIC, Salmonella Enteritidis [1, 4]: > 128 µg/mL
- MIC, E. coli ATCC 25922 [2, 4]: 64 to 128 µg/mL
- MIC, S. aureus ATCC 29213 [3, 4]: 128 µg/mL

Compound: FPFPFGRR [RaSi2]
- MIC, Salmonella Enteritidis [1, 4]: > 128 µg/mL
- MIC, E. coli ATCC 25922 [2, 4]: > 128 µg/mL
- MIC, S. aureus ATCC 29213 [3, 4]: > 128 µg/mL
